In one assay the test system is HBV. Nature of the assay: Anti-HBV activity (HBV DNA in cell lysate, spot hybridization). It is filed as cell-based. The following applies: HBV DNA content of the cells, reagent solution changed every 4 days. The method, then:
Test Procedure for Anti-HBV Activity
Using cell culture method, the preparation of the cells to be tested (100,000 cell's/mL) is inoculated into cell culture plate in 100 μl each well and the cells are cultured 24 h at 37° C. in 5% CO2. Tests are carried out when the cells grow into a monolayer. The target compounds as well as the controls are prepared into a series of solutions of appropriate concentrations using the culture medium and are added into 96 well culture plate respectively in 4 wells per one concentration. Then the reagent solution in each well is changed into the fresh reagent solution with the same concentration every 4 days. A cell control without reagent treatment is simultaneously is set up. The observation index is based upon the pathological changes of the cells by observing the degrees of the pathological changes of the cells under microscope every 8 days. […] Cell control without drug treatment is simultaneously is set up. The reagent solution or control medium in each well is changed into the fresh reagent solution or fresh medium respectively every 4 days. After cytolysis of the cells, HBV DNA is extracted from the cell lysis solution according to the molecular cloning technical procedure. The spots of different samples are hybridized and the A values of different hybridized spots are measured using autoradiograghic technique. The HBV DNA contents in the cell control as well as in the drug treated samples are calculated using the regression equations obtained from the standard curves to obtain half effective concentration values, the results are shown in Table 1.

In the next assay the test system is HIV-1. Nature of the assay: Anti HIV-1 activity (HIV-1 P24 antigen in cell cultures). The assay is classed as cell-based. The following applies: 4 days after addition of the reagents. The method, then:
Test Procedure of Anti HIV-1 Activity
8 reagent solutions of different diluted concentrations and positive control solutions are added into cell cultures in 96 well plate respectively. The sample of each diluted solutions is made duplicately and a control cell sample is also is set up. 100 μl of cell sample at a concentration of 2×10^5cells/ml is inoculated into the wells containing reagent in the plate. The cells samples are cultured in a saturated humidity culture chamber (at a 5% CO2 atmosphere) at 37° C. The pathological changes of cells are observed daily.

Turning to `COC1C=CC=C(C)C(=O)NC2=CC(=O)C(NCCN3CCOCC3)=C(CC(C)CC(OC)C(O)C(C)C=C(C)C1OC(N)=O)C2=O` (stereo not shown) [GM-APML, 17-(2′-(1″-oxa-4″-azacyclohexyl-1″-)ethylamino)-17-demethoxy geldanamycin], the “Activity of HBV inhibition IC50” value in the assay with HBV was found to be 0.064 µg/mL. For the same compound, the “Activity of HIV inhibition IC50” value in the assay on HIV-1 was <0.01 µg/mL.
Turning to `COC1C=CC=C(C)C(=O)NC2=CC(=O)C(NC(C)(C)CO)=C(CC(C)CC(OC)C(O)C(C)C=C(C)C1OC(N)=O)C2=O` (stereo not shown) [GM-W7], in the assay with HBV, the “Activity of HBV inhibition IC50” value amounted to 8.0 µg/mL. Besides, the “Activity of HIV inhibition IC50” value with HIV-1 came to 9.89 µg/mL.
Consider `COC1C=CC=C(C)C(=O)NC2=CC(=O)C(Nn3cnnc3)=C(CC(C)CC(OC)C(O)C(C)C=C(C)C1OC(N)=O)C2=O` (stereo not shown) [GM-W77], for which the “Activity of HBV inhibition IC50” value with HBV was found to be 7.36 µg/mL. Also, the “Activity of HIV inhibition IC50” value in the assay with HIV-1 stood at 8.97 µg/mL.
`COC1C=CC=C(C)C(=O)NC2=CC(=O)C(NN3CCOCC3)=C(CC(C)CC(OC)C(O)C(C)C=C(C)C1OC(N)=O)C2=O` (stereo not shown) [GM-W68]: in the assay on HBV, the “Activity of HBV inhibition IC50” value was 4.6 µg/mL. In the assay with HIV-1, the “Activity of HIV inhibition IC50” value was 10.46 µg/mL.
As for `COC1C=CC=C(C)C(=O)NC2=CC(=O)C(NC(C)(CO)CO)=C(CC(C)CC(OC)C(O)C(C)C=C(C)C1OC(N)=O)C2=O` (stereo not shown) [GM-W6], in the assay on HBV, the “Activity of HBV inhibition IC50” value turned out to be 1.32 µg/mL. In addition, the “Activity of HIV inhibition IC50” value in the assay on HIV-1 is 1.47 µg/mL.
The matching figures for `COC1C=CC=C(C)C(=O)NC2=CC(=O)C(NCCOCCO)=C(CC(C)CC(OC)C(O)C(C)C=C(C)C1OC(N)=O)C2=O` (stereo not shown) [GM-W25]: 0.32 µg/mL and 0.43 µg/mL.
With `COC1C=CC=C(C)C(=O)NC2=CC(=O)C(NCc3cncc(C)n3)=C(CC(C)CC(OC)C(O)C(C)C=C(C)C1OC(N)=O)C2=O` (stereo not shown) [GM-W2], in the assay on HBV, the “Activity of HBV inhibition IC50” value was found to be 8.0 µg/mL. Also, the “Activity of HIV inhibition IC50” value in the assay with HIV-1 worked out at 19.6 µg/mL.
On the same counts, the results for `COC1C=CC=C(C)C(=O)NC2=CC(=O)C(NCCCN3CCOCC3)=C(CC(C)CC(OC)C(O)C(C)C=C(C)C1OC(N)=O)C2=O` (stereo not shown) [GM-W46] are 1.49 µg/mL and 1.32 µg/mL.
On the same counts, the results for `CCN1CCCC1CNC1=C2CC(C)CC(OC)C(O)C(C)C=C(C)C(OC(N)=O)C(OC)C=CC=C(C)C(=O)NC(=CC1=O)C2=O` (stereo not shown) [GM-210R, 17-(2″R-2″-(N-ethylpyrrolidinyl)-methylamino)-17-demethoxy geldanamycin] are 0.064 µg/mL and 0.01 µg/mL.
For the compound `COC1C=CC=C(C)C(=O)NC2=CC(=O)C(NCCCN3CCCCC3C)=C(CC(C)CC(OC)C(O)C(C)C=C(C)C1OC(N)=O)C2=O` (stereo not shown) [GM-W47], the “Activity of HBV inhibition IC50” value in the assay with HBV turned out to be 3.87 µg/mL. Also, in the assay on HIV-1, the “Activity of HIV inhibition IC50” value came out at 1.84 µg/mL.
With `COC1C=CC=C(C)C(=O)NC2=CC(=O)C(NCc3cc(O)co3)=C(CC(C)CC(OC)C(O)C(C)C=C(C)C1OC(N)=O)C2=O` (stereo not shown) [GM-W53], the “Activity of HBV inhibition IC50” value in the assay with HBV stood at 0.46 µg/mL. The “Activity of HIV inhibition IC50” value in the assay with HIV-1 came out at 0.37 µg/mL.
On the same counts, the results for `COC1C=CC=C(C)C(=O)NC2=CC(=O)C(NN3CCCCC3)=C(CC(C)CC(OC)C(O)C(C)C=C(C)C1OC(N)=O)C2=O` (stereo not shown) [GM-W72] are 3.2 µg/mL and 6.45 µg/mL.
The matching figures for `CCCCCC(NC1=C2CC(C)CC(OC)C(O)C(C)C=C(C)C(OC(N)=O)C(OC)C=CC=C(C)C(=O)NC(=CC1=O)C2=O)P(=O)(O)O` (stereo not shown) [GM-W62]: 0.89 µg/mL and 1.76 µg/mL.
As for `COC1C=CC=C(C)C(=O)NC2=CC(=O)C(NCC(O)c3ccccc3)=C(CC(C)CC(OC)C(O)C(C)C=C(C)C1OC(N)=O)C2=O` (stereo not shown) [GM-W8], the “Activity of HBV inhibition IC50” value with HBV amounted to 1.32 µg/mL. Moreover, in the assay with HIV-1, the “Activity of HIV inhibition IC50” value turned out to be 1.22 µg/mL.
On the same counts, the results for `CO[C@H]1/C=C\C=C(/C)C(=O)NC2=CC(=O)C(NC[C@@H]3CCCO3)=C(C[C@@H](C)C[C@H](OC)[C@H](O)[C@@H](C)/C=C(\C)[C@@H]1OC(N)=O)C2=O` [THFM(S)-GM, 2′S-17-tetrahydrofurfurylamino-17-demethoxy geldanamycin] are 0.032 µg/mL and 0.06 µg/mL.
In the case of `COC1C=CC=C(C)C(=O)NC2=CC(=O)C(NC3CC(C)(C)N(C)C(C)(C)C3)=C(CC(C)CC(OC)C(O)C(C)C=C(C)C1OC(N)=O)C2=O` (stereo not shown) [GM-W69], the “Activity of HBV inhibition IC50” value in the assay on HBV was determined as 10.8 µg/mL. The “Activity of HIV inhibition IC50” value in the assay on HIV-1 is 22.23 µg/mL.
The matching figures for `COC1C=CC=C(C)C(=O)NC2=CC(=O)C(NNC(=O)c3ccco3)=C(CC(C)CC(OC)C(O)C(C)C=C(C)C1OC(N)=O)C2=O` (stereo not shown) [GM-W4]: 3.2 µg/mL and 0.33 µg/mL.
Take `COC(CNC1=C2CC(C)CC(OC)C(O)C(C)C=C(C)C(OC(N)=O)C(OC)C=CC=C(C)C(=O)NC(=CC1=O)C2=O)OC` (stereo not shown) [GM-W12]: in the assay with HBV, the “Activity of HBV inhibition IC50” value is 3.2 µg/mL. The “Activity of HIV inhibition IC50” value in the assay on HIV-1 is 0.46 µg/mL.
The matching figures for `COC1C=CC=C(C)C(=O)NC2=CC(=O)C(NCCCn3ccnc3)=C(CC(C)CC(OC)C(O)C(C)C=C(C)C1OC(N)=O)C2=O` (stereo not shown) [GM-129, 17-(3′-(1″-imidazolyl)propylamino)-17-demethoxy geldanamycin]: 0.32 µg/mL and 1.92 µg/mL.
In the case of `CO[C@H]1/C=C\C=C(/C)C(=O)NC2=CC(=O)C(NCC3CCCO3)=C(C[C@@H](C)C[C@H](OC)[C@H](O)[C@@H](C)/C=C(\C)[C@@H]1OC(N)=O)C2=O` (stereo partly shown) [THFM-GM, 17-tetrahydrofurfurylamino-17-demethoxy geldanamycin], the “Activity of HBV inhibition IC50” value with HBV was 0.01 µg/mL. The “Activity of HIV inhibition IC50” value with HIV-1 was found to be 0.14 µg/mL.
`COC1C=CC=C(C)C(=O)NC2=CC(=O)C(NN3CCN(CCO)CC3)=C(CC(C)CC(OC)C(O)C(C)C=C(C)C1OC(N)=O)C2=O` (stereo not shown) [GM-W64]: the “Activity of HBV inhibition IC50” value in the assay on HBV amounted to 8.6 µg/mL. In the assay with HIV-1, the “Activity of HIV inhibition IC50” value worked out at 3.75 µg/mL.
The matching figures for `COC1C=CC=C(C)C(=O)NC2=CC(=O)C(NCC(O)CO)=C(CC(C)CC(OC)C(O)C(C)C=C(C)C1OC(N)=O)C2=O` (stereo not shown) [GM-W74]: 8.9 µg/mL and 0.47 µg/mL.
The matching figures for `COC1C=CC=C(C)C(=O)NC2=CC(=O)C(NC(c3ccccc3)c3ccccc3)=C(CC(C)CC(OC)C(O)C(C)C=C(C)C1OC(N)=O)C2=O` (stereo not shown) [GM-W44]: >100 µg/mL and >60 µg/mL.
The matching figures for `CO[C@H]1/C=C/C=C(\C)C(=O)NC2=CC(=O)C(NCCCN3CCCC3=O)=C(C[C@H](C)C[C@H](OC)[C@H](O)[C@@H](C)/C=C(\C)[C@H]1OC(N)=O)C2=O` [GM-226, 17-(3′-(2″-pyrrolidonyl)propylamino)-17-demethoxy geldanamycin]: 1.6 µg/mL and >0.14 µg/mL.
Take `COC1C=CC=C(C)C(=O)NC2=CC(=O)C(NCc3ccc(C)o3)=C(CC(C)CC(OC)C(O)C(C)C=C(C)C1OC(N)=O)C2=O` (stereo not shown) [GM-W88]: the “Activity of HBV inhibition IC50” value with HBV is 0.08 µg/mL. Besides, the “Activity of HIV inhibition IC50” value with HIV-1 came out at 0.24 µg/mL.
The matching figures for `COC1C=CC=C(C)C(=O)NC2=CC(=O)C(NCCc3c[nH]c4ccccc34)=C(CC(C)CC(OC)C(O)C(C)C=C(C)C1OC(N)=O)C2=O` (stereo not shown) [GM-W90]: 0.93 µg/mL and 1.23 µg/mL.
